According to US11007250B2, “Methods and kits for treating pain” (Duke University, priority 2017, dated 2021):

Key:
[1] = tested on: DRG neurons and sciatic nerve fibers; experiment: Nivolumab binding in mouse DRG and sciatic nerve sections
Method: FIG. 10 (Supp. FIG. 2). […] Human IgG included as a control. *P<0.05, vs. human IgG/PD-L1, repeated measures Two-Way ANOVA, n=4 mice/group. Arrows indicate drug injections. Human IgG or monoclonal antibody injected 30 min prior to injection of PD-L1. BL, baseline. […] Arrows indicate nerve fibers. Data are mean s.e.m.
Immunohistochemistry in mouse and human tissues and quantification. After appropriate survival times, mice were deeply anesthetized with isoflurane and perfused through the ascending aorta with PBS, followed by 4% paraformaldehyde. After the perfusion, the L4-L5 spinal cord segments, L4-L5 DRGs, sciatic nerves, and melanoma tissues were removed and postfixed in the same fixative overnight. Fresh human DRGs (L4-L5) of 4 non-diseased donors from NDRI (National Disease Research Interchange) (Xu, Z Z, et al. 2015) and the attached spinal nerves were immediately fixed upon delivery in fresh 4% paraformaldehyde overnight. Spinal cord, DRG, and nerve tissue sections (10 or 14 μm) and free-floating spinal cord and skin sections (30 μm) were cut in a cryostat. […] The stained sections were examined with a Nikon fluorescence microscope, and images were captured with a CCD Spot camera. […]

[2] = tested on: afferent fibers in sciatic nerve of melanoma-bearing mice; experiment: Spontaneous discharge recordings in mouse sciatic nerve in vivo; details: i.v. Nivolumab 10 mg/kg, MCI-4w, 3 h after injection
Text: Spontaneous discharge recordings in mouse sciatic nerve in vivo. Adult male mice (25-32 g) were anaesthetized with urethane (1.5 g/kg, i.p.) and monitored for loss of hind paw pinch reflex with additional injections of urethane (0.2 g/kg). The animals were artificially ventilated with oxygen on a respirator. The left thigh was shaved and an incision made parallel to the femur. The muscle was parted by blunt forceps dissection to expose the sciatic nerve proximal to the trifurcation. A cuff electrode (Microprobes) was placed loosely around the full circumference of the sciatic nerve. Skin flaps were raised to enclose a pool of mineral oil that covered the exposed regions of nerve. The spontaneous discharges in the sciatic nerve were recorded with a microelectrode AC amplifier (1800, A-M systems), filtered (low cut-off 100 Hz and hi cut-off 20 kHz) and digitized at 20 kHz (Digidata 1440A, Molecular Devices). Data were stored with a personal computer using pCLAMP 10 software and analyzed with Offline Sorter software (Plexon, Dallas, Tex.) and Origin pro 8.0 (Origin Lab). The spikes of sciatic nerve were characterized as previously reported (Xu, Z Z, et al. 2015).

[3] = tested on: mice; experiment: Tail-flick and hot-plate tests of morphine antinociception; format: in vivo, mouse
Method: Tail-flick test. All animals were habituated to testing environment for at least 2 days before baseline testing. Mice were gently held by a hand with a terry glove and with tails exposed. The distal 3 cm of the tail was immersed into the 50° C. hot water. The tail-flick latency was the time required for a mouse to flick or remove its tail out of the water. A maximum cut-off value of 15 seconds was set to avoid thermal injury. Tail-flick latency was determined both before and after drug injection. Data are expressed as the maximum possible effect (MPE) calculated as MPE (%)=100×[(postdrug response baseline response)/(cutoff response−baseline response)]. The MPE (%) data from each animal were converted to area under the curve (AUC).
Hot-plate test. All animals were habituated to testing environment for at least 2 days before baseline testing. […] A maximum cut-off value of 40 seconds was set to avoid tissue injury. Data are expressed as the maximum possible effect (MPE) calculated as MPE (%)=100×[(postdrug response−baseline response)/(cutoff response−baseline response)]. The MPE (%) data from each animal were converted to area under the curve (AUC).

[4] = tested on: mice with LLC bone cancer; experiment: Bone cancer pain model, Lewis lung cancer (LLC) cells in tibia; format: in vivo, mouse; details: Nivolumab 10 mg/kg IV on day 0, 3, 7, 10, 14
Text: (B) Cancer pain, as measured by mechanical pain sensitivity (paw withdrawal threshold) in von Frey test. (C) Mechanical allodynia (paw withdrawal frequency to a subthreshold filament, 0.4 g) in von Frey test. (D) Cold allodynia (lifting and licking time) in acetone test. (E) Heat hyperalgesia (paw withdrawal latency) in Hargreaves test. (B-E) n=9-11 mice in each group; Two-way ANOVA with Bonferroni's hoc-test; *P<0.05, compared with baseline; #P<0.05, compared with Saline group.

[5] = tested on: melanoma-bearing mice; experiment: Mouse melanoma model: spontaneous pain, von Frey test, CPP; format: in vivo; details: MCI-4w

Nivolumab: FDA-approved fully humanized IgG4 monoclonal anti-PD-1 antibody, Bristol-Myers Squibb
binding in Pd1 knockout mice ([1]; Pd1−/− mice): absent
binding in wild-type (WT) mouse tissue ([1]; WT mice): binding on DRG neurons and sciatic nerve fibers
spontaneous discharges in nerve fibers [2]: significantly increased spontaneous discharges
analgesic effect of morphine after Nivolumab ([3]; Nivolumab 10 mg/kg i.v. 30 min before morphine 10 mg/kg s.c.): reduced analgesic effect
pain sensitivity, given with saline ([3]; Nivolumab 10 mg/kg i.v. 30 min before s.c. saline): greater sensitivity to pain
cancer pain days after each treatment [4]: sustained beneficial effects on cancer pain relief
mechanical allodynia in melanoma-bearing mice ([5]; sPD-1 5 μg i.pl., siRNA 2 μg peri-sciatic, Nivolumab 3-10 mg/kg i.v., RMP1-14 10 mg/kg i.v.): rapid, persistent, and dose-dependent mechanical allodynia
spontaneous pain (licking/flinching) in melanoma-bearing mice ([5]; sPD-1 5 μg i.pl., siRNA 2 μg peri-sciatic, Nivolumab 3-10 mg/kg i.v., RMP1-14 10 mg/kg i.v., SSG 5 μg i.pl.): marked spontaneous pain
mechanical allodynia in melanoma-bearing mice after local injection ([5]; intrathecal or intraplantar route): evoked mechanical allodynia
